In PubChem BioAssay AID248 (DTP/NCI, 2004):
“And” between values parts separate entries of the source, which are not always exact repeats. Identical values can stand only once. Toxic doses and inconclusive results are not listed. Cut-off read from the data, not from the text of the source: active = T/C of 150% or more; inactive = T/C below 125%.

Test system: L1210 leukemia ip in BDF1 mice, survival T/C
Assay: NCI In Vivo Anticancer Drug Screen. Data for tumor model L1210 Leukemia (intraperitoneal) in B6D2F1 (BDF1) mice
Conditions: higher = longer survival
Summary of the method: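 Ratio derived from survival: compound-dosed mice over vehicle-dosed mice, all bearing a transplantable tumor.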

[1] = endpoint: mean survival time, dose: 100.0 mg/kg/injection, schedule: Q01DX009 (ip), vehicle: Klucel (hydroxypropylcellulose) (HPC)
[2] = endpoint: mean survival time, dose: 100.0 mg/kg/injection, schedule: Q04DX003 (ip), vehicle: Klucel (hydroxypropylcellulose) (HPC)
[3] = endpoint: mean survival time, dose: 200.0 mg/kg/injection, schedule: Q01DX009 (ip), vehicle: Klucel (hydroxypropylcellulose) (HPC)
[4] = endpoint: mean survival time, dose: 200.0 mg/kg/injection, schedule: Q04DX003 (ip), vehicle: Klucel (hydroxypropylcellulose) (HPC)
[5] = endpoint: mean survival time, dose: 400.0 mg/kg/injection, schedule: Q04DX003 (ip), vehicle: Klucel (hydroxypropylcellulose) (HPC)

Measured: T/C

Cc1c(N)nc([C@H](CC(N)=O)NC[C@H](N)C(N)=O)nc1C(=O)N[C@H](C(=O)N[C@H](C)[C@@H](O)[C@H](C)C(=O)N[C@H](C(=O)NCCc1nc(-c2nc(C(=O)NCCC[S+](C)C)cs2)cs1)[C@@H](C)O)C(OC1OC(CO)C(O)C(O)C1OC1OC(CO)C(O)C(OC(N)=O)C1O)c1cnc[nH]1 (some centres undefined)
inactive: endpoint: mean survival time, dose: 0.35 mg/kg/injection, schedule: Q01DX009 (ip), vehicle: saline 99 % of control and 100 % of control | endpoint: mean survival time, dose: 0.7 mg/kg/injection, schedule: Q01DX009 (ip), vehicle: saline 100 % of control | endpoint: mean survival time, dose: 1.3 mg/kg/injection, schedule: Q01DX009 (ip), vehicle: saline 99 % of control and 107 % of control | endpoint: mean survival time, dose: 2.0 mg/kg/injection, schedule: Q01DX009 (ip), vehicle: saline 101 % of control | endpoint: mean survival time, dose: 2.0 mg/kg/injection, schedule: Q04DX002 (ip), vehicle: saline 97 % of control | endpoint: mean survival time, dose: 2.5 mg/kg/injection, schedule: Q01DX009 (ip), vehicle: saline 110 % of control and 119 % of control | endpoint: mean survival time, dose: 4.0 mg/kg/injection, schedule: Q01DX009 (ip), vehicle: saline 107 % of control and 109 % of control and 112 % of control | endpoint: mean survival time, dose: 4.0 mg/kg/injection, schedule: Q04DX002 (ip), vehicle: saline 103 % of control and 105 % of control | endpoint: mean survival time, dose: 5.0 mg/kg/injection, schedule: Q01DX009 (ip), vehicle: saline 94 % of control and 107 % of control | endpoint: mean survival time, dose: 5.8 mg/kg/injection, schedule: Q01DX009 (ip), vehicle: clinical formulation 93 % of control | endpoint: mean survival time, dose: 7.81 mg/kg/injection, schedule: Q01DX009 (ip), vehicle: saline 109 % of control | endpoint: mean survival time, dose: 8.0 mg/kg/injection, schedule: Q01DX009 (ip), vehicle: saline 104 % of control and 109 % of control and 110 % of control | endpoint: mean survival time, dose: 8.0 mg/kg/injection, schedule: Q04DX002 (ip), vehicle: saline 100 % of control and 108 % of control | endpoint: mean survival time, dose: 8.7 mg/kg/injection, schedule: Q01DX009 (ip), vehicle: clinical formulation 95 % of control | endpoint: mean survival time, dose: 10.0 mg/kg/injection, schedule: Q01DX009 (ip), vehicle: saline 106 % of control and 110 % of control | endpoint: mean survival time, dose: 13.0 mg/kg/injection, schedule: Q01DX009 (ip), vehicle: clinical formulation 92 % of control | endpoint: mean survival time, dose: 15.62 mg/kg/injection, schedule: Q01DX009 (ip), vehicle: saline 104 % of control | endpoint: mean survival time, dose: 16.0 mg/kg/injection, schedule: Q01DX009 (ip), vehicle: saline 93 % of control and 108 % of control and 114 % of control | endpoint: mean survival time, dose: 16.0 mg/kg/injection, schedule: Q04DX002 (ip), vehicle: saline 97 % of control and 103 % of control | endpoint: mean survival time, dose: 20.0 mg/kg/injection, schedule: Q01DX009 (ip), vehicle: clinical formulation 93 % of control | endpoint: mean survival time, dose: 30.0 mg/kg/injection, schedule: Q01DX009 (ip), vehicle: clinical formulation 87 % of control | endpoint: mean survival time, dose: 31.0 mg/kg/injection, schedule: Q04DX002 (ip), vehicle: saline 103 % of control and 106 % of control | endpoint: mean survival time, dose: 31.25 mg/kg/injection, schedule: Q01DX001 (ip), vehicle: saline 100 % of control | endpoint: mean survival time, dose: 31.25 mg/kg/injection, schedule: Q01DX009 (ip), vehicle: saline 116 % of control | endpoint: mean survival time, dose: 32.0 mg/kg/injection, schedule: Q01DX009 (ip), vehicle: saline 113 % of control and 91 % of control and 92 % of control | endpoint: mean survival time, dose: 62.0 mg/kg/injection, schedule: Q04DX002 (ip), vehicle: saline 93 % of control and 101 % of control | endpoint: mean survival time, dose: 62.5 mg/kg/injection, schedule: Q01DX001 (ip), vehicle: saline 122 % of control | endpoint: mean survival time, dose: 62.5 mg/kg/injection, schedule: Q01DX009 (ip), vehicle: saline 107 % of control | endpoint: mean survival time, dose: 125.0 mg/kg/injection, schedule: Q01DX001 (ip), vehicle: saline 106 % of control | endpoint: mean survival time, dose: 125.0 mg/kg/injection, schedule: Q01DX009 (ip), vehicle: saline 97 % of control | endpoint: mean survival time, dose: 250.0 mg/kg/injection, schedule: Q01DX001 (ip), vehicle: saline 106 % of control | endpoint: median survival time, dose: 3.0 mg/kg/injection, schedule: Q01DX009 (ip), vehicle: saline 99 % of control | endpoint: median survival time, dose: 4.0 mg/kg/injection, schedule: Q01DX009 (ip), vehicle: saline 100 % of control and 110 % of control | endpoint: median survival time, dose: 5.0 mg/kg/injection, schedule: Q01DX009 (ip), vehicle: saline 101 % of control | endpoint: median survival time, dose: 8.0 mg/kg/injection, schedule: Q01DX009 (ip), vehicle: saline 106 % of control and 120 % of control | endpoint: median survival time, dose: 8.4 mg/kg/injection, schedule: Q01DX009 (ip), vehicle: saline 98 % of control | endpoint: median survival time, dose: 14.0 mg/kg/injection, schedule: Q01DX009 (ip), vehicle: saline 96 % of control | endpoint: median survival time, dose: 16.0 mg/kg/injection, schedule: Q01DX009 (ip), vehicle: saline 106 % of control | endpoint: median survival time, dose: 23.0 mg/kg/injection, schedule: Q01DX009 (ip), vehicle: saline 96 % of control | endpoint: median survival time, dose: 32.0 mg/kg/injection, schedule: Q01DX009 (ip), vehicle: saline 100 % of control | endpoint: median survival time, dose: 39.0 mg/kg/injection, schedule: Q01DX009 (ip), vehicle: saline 88 % of control

NNC(=O)CCC(=O)NN
inactive: endpoint: mean survival time, dose: 100.0 mg/kg/injection, schedule: Q01DX009 (ip), vehicle: saline with Tween-80 100 % of control | endpoint: mean survival time, dose: 200.0 mg/kg/injection, schedule: Q01DX009 (ip), vehicle: saline with Tween-80 99 % of control | endpoint: mean survival time, dose: 400.0 mg/kg/injection, schedule: Q01DX009 (ip), vehicle: saline with Tween-80 100 % of control

CC(C)(C)C(=O)Oc1ccc(C(C)(C)C)cc1
inactive: [1] 101 % of control | [2] 104 % of control | [3] 102 % of control | [4] 98 % of control | endpoint: mean survival time, dose: 400.0 mg/kg/injection, schedule: Q01DX009 (ip), vehicle: Klucel (hydroxypropylcellulose) (HPC) 98 % of control | [5] 92 % of control

COC(=O)C[P+](c1ccccc1)(c1ccccc1)c1ccccc1
inactive: endpoint: mean survival time, dose: 15.0 mg/kg/injection, schedule: Q01DX001 (ip), vehicle: saline 93 % of control | endpoint: mean survival time, dose: 30.0 mg/kg/injection, schedule: Q01DX001 (ip), vehicle: saline 89 % of control | endpoint: mean survival time, dose: 60.0 mg/kg/injection, schedule: Q01DX001 (ip), vehicle: saline 86 % of control

c1ccc(C23c4ccccc4C2c2ccccc23)nc1 (centres undefined)
inactive: endpoint: mean survival time, dose: 12.5 mg/kg/injection, schedule: Q01DX009 (ip), vehicle: gum acacia 104 % of control | endpoint: mean survival time, dose: 25.0 mg/kg/injection, schedule: Q01DX009 (ip), vehicle: gum acacia 100 % of control | endpoint: mean survival time, dose: 50.0 mg/kg/injection, schedule: Q01DX009 (ip), vehicle: gum acacia 100 % of control | endpoint: mean survival time, dose: 100.0 mg/kg/injection, schedule: Q04DX003 (ip), vehicle: gum acacia 97 % of control | endpoint: mean survival time, dose: 200.0 mg/kg/injection, schedule: Q04DX003 (ip), vehicle: gum acacia 97 % of control | endpoint: mean survival time, dose: 400.0 mg/kg/injection, schedule: Q04DX003 (ip), vehicle: gum acacia 104 % of control

NC(=O)c1ncc[nH]c1=O
inactive: endpoint: mean survival time, dose: 50.0 mg/kg/injection, schedule: Q01DX009 (ip), vehicle: Klucel (hydroxypropylcellulose) (HPC) 94 % of control | endpoint: mean survival time, dose: 50.0 mg/kg/injection, schedule: Q01DX009 (ip), vehicle: saline 97 % of control | [1] 97 % of control | endpoint: mean survival time, dose: 100.0 mg/kg/injection, schedule: Q01DX009 (ip), vehicle: saline 103 % of control | [2] 97 % of control | [3] 105 % of control | endpoint: mean survival time, dose: 200.0 mg/kg/injection, schedule: Q01DX009 (ip), vehicle: saline 90 % of control | [4] 95 % of control | [5] 100 % of control

CC(C)=CCC(C)c1ccncc1 (centres undefined)
inactive: endpoint: mean survival time, dose: 100.0 mg/kg/injection, schedule: Q01DX001 (ip), vehicle: saline 102 % of control | endpoint: mean survival time, dose: 200.0 mg/kg/injection, schedule: Q01DX001 (ip), vehicle: saline 97 % of control | endpoint: mean survival time, dose: 400.0 mg/kg/injection, schedule: Q01DX001 (ip), vehicle: saline 102 % of control

COc1ccc(C2C=C(C)Oc3c2c(=O)oc2ccccc32)cc1OC (centres undefined)
inactive: endpoint: mean survival time, dose: 6.25 mg/kg/injection, schedule: Q01DX009 (ip), vehicle: water 96 % of control | endpoint: mean survival time, dose: 12.5 mg/kg/injection, schedule: Q01DX009 (ip), vehicle: water 98 % of control | endpoint: mean survival time, dose: 25.0 mg/kg/injection, schedule: Q01DX009 (ip), vehicle: water 100 % of control and 91 % of control | endpoint: mean survival time, dose: 50.0 mg/kg/injection, schedule: Q01DX009 (ip), vehicle: water 86 % of control

COc1ccc(N2C(=O)OC3(CCN(Cc4ccccc4)CC3)C2=O)cc1
inactive: endpoint: mean survival time, dose: 100.0 mg/kg/injection, schedule: Q01DX001 (ip), vehicle: Klucel (hydroxypropylcellulose) (HPC) 96 % of control | endpoint: mean survival time, dose: 200.0 mg/kg/injection, schedule: Q01DX001 (ip), vehicle: Klucel (hydroxypropylcellulose) (HPC) 103 % of control | endpoint: mean survival time, dose: 400.0 mg/kg/injection, schedule: Q01DX001 (ip), vehicle: Klucel (hydroxypropylcellulose) (HPC) 92 % of control

CCNC(C1CCCCC1)C(C)OC(=O)c1ccc(N)cc1 (centres undefined)
inactive: endpoint: mean survival time, dose: 75.0 mg/kg/injection, schedule: Q01DX001 (ip), vehicle: saline 98 % of control
